Source: patent US10023615B2, “Efficient transport into white blood cells” (priority 2008, dated 2018)
“Also recorded” adds a separate entry of the source. Ends that are not written are not given here.

Key:
[1] = test system: hAPP Tg mice (APP751 London and Swedish mutations); test: Morris Water Maze in hAPP-transgenic mice; type: in vivo, mouse
Experimental: In order to determine the activity of the exemplary all-D retro-inverso IB(s) peptide XG-102 (SEQ ID NO: 233) in Alzheimer's disease, XG-102 (SEQ ID NO: 233) was evaluated in the hAPP-transgenic mice model overexpressing APP751 with London and Swedish mutations using the behavioral Morris Water Maze test as well as immunohistological tests measuring plaque load and ELISA tests measuring β-amyloid1-40 and β-amyloid1-42 levels in the brain of mice.
a) METHODS • i) Introduction • The study was designed to evaluate the efficacy of the test substance (XG-102, SEQ ID NO: 233) on behavioral, biochemical and histological markers using 5 months (±2 weeks) old female hAPP Tg mice. Therefore, mice were treated every two or three weeks up to 4 months and in the end of the treatment period behavior was evaluated in the Morris Water Maze. At sacrifice brain, CSF and blood were collected. Aβ40 and Aβ42 levels were determined in four different brain homogenate fractions as well as in CSF of Tg mice. Plaque load was quantified in the cortex and the hippocampus of 8 Tg animals per treatment group.
ii) Animals • Female Tg mice with a C57BU6xDBA background and an age of 5 months (±2 week) were randomly assigned to treatment groups 1 to 3 (n=12). […]

[2] = test system: TNBS induced colitis; test: TNBS induced colitis (IBD study); type: in vivo
Experimental: b) Constitution of Test Groups and Dose Levels • The table below lists the experimental groups comprising the study.
c) Test Procedures • Colitis was induced by administration of TNBS dissolved in 50% Ethanol • All animals were then treated with doses of XG-102 in the range of 0.1 to 1000 μg/kg, […], as a single or repeated daily doses (see above).
d) Observations and Examinations • i) Clinical Signs • Throughout the duration of the above experiment, careful clinical examinations were carried out and recorded. Observations included changes external appearance, e.g. of the skin, fur, eyes, mucous membranes, occurrence of secretions and excretions (e.g. diarrhea), and autonomic activity. Changes in gait, posture and response to handling, as well as the presence of bizarre behavior, tremors, convulsions, sleep and coma were also noted. • ii) Body Weights • Determination of individual body weight of animals was made on a daily basis. • iii) Clinical Assessment of Colitis • Body weight, stool consistency and bleeding per rectum were all recorded daily and served as the parameters of disease severity score:
• iv) Gross Pathology of the Colon • On the last day of the experiment, animals were euthanized and the colon was removed for gross pathology evaluation according to the following score: […]

“dqsrpvqpflnIttprkprpprrrqrrkkrg (DQSRPVQPFLNLTTPRKPRPPRRRQRRKKRG; not fully specified (some residues); printed as dqsrpvqpflnIttprkprpprrrqrrkkrg) [XG-102]” was tested. Which “learning performance between day 1 and day 4” value ([1]; 0.1 mg/kg) did it give?
The value was “a tendency to have worse learning performance between day 1 and day 4; also recorded: a slightly poorer learning performance between the first and the last training day”.

And the “spatial learning in the MWM” value ([1]; 0.1 mg/kg every two weeks or 10 mg/kg every three weeks s.c., four months)?
Its value is “remained widely uninfluenced”.

And the “disease recovery (conclusion)” value [2]?
Its value is “active in enhancing diseases recovery”.

What about the body weights ([2]; TNBS induced weight loss) of the same substance?
Its body weights is “either prevented the weight loss or ameliorated the symptoms and supported recovery”.

And the clinical score ([2]; any dose, route or time schedule (single dose or daily dose))?
The clinical score was “an effect equivalent to or better than the one observed with the commonly used reference drug sulfasalazine”.

What about the clinical signs ([2]; mouse, in vivo) of the same substance?
Its clinical signs is “No abnormalities were observed”.

What about the mortality rate ([2]; mouse, in vivo) of the same substance?
Its mortality rate is “No mortality was recorded”.
